Assay results from patent US20240174662A1, “SMALL MOLECULE INHIBITORS OF SALT INDUCIBLE KINASES” (Janssen Biotech, Inc., priority 2021, published 2024).

Target: SIK2 (Homo sapiens (Human), UniProt Q9H0K1)
Test: SIK2 Enzymatic Assay Version 2 (High ATP)
Format: biochemical
Details: 3 mM ATP and 200 μM HDAC5tide final, ADP-Glo Max luminescence
Outline: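 Run at room temperature; SIK2 enzyme at 6 nM (2× final) preincubated with compound 30 min before reaction. ADP formation detected by ADP-Glo Max (2 h reagent, 1 h detection) with luminescence read-out.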

Chain of SIK2 (Q9H0K1 whole entry, species assumed): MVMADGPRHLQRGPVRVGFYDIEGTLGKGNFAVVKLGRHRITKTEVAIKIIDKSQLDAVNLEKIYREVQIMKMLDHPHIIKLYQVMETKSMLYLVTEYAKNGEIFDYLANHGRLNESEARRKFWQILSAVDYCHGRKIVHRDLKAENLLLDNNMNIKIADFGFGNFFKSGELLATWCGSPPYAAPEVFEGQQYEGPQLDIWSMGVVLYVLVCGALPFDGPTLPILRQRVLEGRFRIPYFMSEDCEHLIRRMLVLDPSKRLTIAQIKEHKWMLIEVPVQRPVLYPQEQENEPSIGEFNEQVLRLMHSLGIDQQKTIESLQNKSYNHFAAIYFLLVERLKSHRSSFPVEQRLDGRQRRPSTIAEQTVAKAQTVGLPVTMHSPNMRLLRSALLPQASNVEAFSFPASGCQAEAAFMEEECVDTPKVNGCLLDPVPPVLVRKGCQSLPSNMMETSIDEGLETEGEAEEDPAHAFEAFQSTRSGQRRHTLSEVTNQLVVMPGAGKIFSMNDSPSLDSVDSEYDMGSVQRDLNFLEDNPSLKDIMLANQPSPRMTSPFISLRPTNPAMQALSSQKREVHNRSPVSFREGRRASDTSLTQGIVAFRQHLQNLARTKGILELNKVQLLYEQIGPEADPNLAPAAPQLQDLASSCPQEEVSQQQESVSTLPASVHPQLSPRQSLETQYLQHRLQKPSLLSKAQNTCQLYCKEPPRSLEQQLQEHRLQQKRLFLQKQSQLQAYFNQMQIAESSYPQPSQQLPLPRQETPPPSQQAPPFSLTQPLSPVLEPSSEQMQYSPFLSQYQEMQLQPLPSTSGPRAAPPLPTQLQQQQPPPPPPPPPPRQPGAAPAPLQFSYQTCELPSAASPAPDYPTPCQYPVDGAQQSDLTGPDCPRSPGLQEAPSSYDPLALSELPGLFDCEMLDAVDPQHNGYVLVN

IC50 [nM]	Structure (SMILES)
2	Cc1nccc(Nc2cc3cc(-c4c(OC[C@H]5CCN5C)cnn4C)ccn3n2)n1 [Example 64, 5-[2-methyl-4-[[(2R)-1-methylazetidin-2-yl]methoxy]pyrazol-3-yl]-N-(2-methylpyrimidin-4-yl)pyrazolo[1,5-a]pyridin-2-amine]
< 0.847	CCN1CC[C@@H]1COc1cnn(C)c1-c1ccn2nc(Nc3ccnc(C)n3)cc2c1 [Example 65, 5-[4-[[(2R)-1-ethylazetidin-2-yl]methoxy]-2-methyl-pyrazol-3-yl]-N-(2-methylpyrimidin-4-yl)pyrazolo[1,5-a]pyridin-2-amine]
1.4	CCN1CC[C@@H]1COc1cnn(C)c1-c1ccn2nc(NC(=O)[C@@H]3C[C@H]3C)cc2c1 [Example 66, (1R,2R)—N-[5-[4-[[(2R)-1-ethylazetidin-2-yl]methoxy]-2-methyl-pyrazol-3-yl]pyrazolo[1,5-a]pyridin-2-yl]-2-methyl-cyclopropanecarboxamide]
< 0.847	CCN1CC[C@@H]1COc1cnn(C)c1-c1ccn2nc(Nc3ccc(C)nn3)cc2c1 [Example 68, 5-[4-[[(2R)-1-ethylazetidin-2-yl]methoxy]-2-methyl-pyrazol-3-yl]-N-(6-methylpyridazin-3-yl)pyrazolo[1,5-a]pyridin-2-amine]
30.3	CN1CC[C@@H]1COc1cnn(C)c1-c1ccn2nc(NC(=O)[C@@H]3C[C@@H]3F)cc2c1 [Example 69, (1S,2S)-2-fluoro-N-[5-[2-methyl-4-[[(2R)-1-methylazetidin-2-yl]methoxy]pyrazol-3-yl]pyrazolo[1,5-a]pyridin-2-yl]cyclopropanecarboxamide]
52.1	CN1CC[C@@H]1COc1cnn(C)c1-c1ccn2nc(NC(=O)C3CC3(F)F)cc2c1 (stereo partly drawn) [Example 72, 2,2-difluoro-N-[5-[2-methyl-4-[[(2R)-1-methylazetidin-2-yl]methoxy]pyrazol-3-yl]pyrazolo[1,5-a]pyridin-2-yl]cyclopropanecarboxamide]
< 0.847	CCN1CC[C@@H]1COc1cnn(C)c1-c1ccn2nc(Nc3cc(C)nc(C(F)(F)F)n3)cc2c1 [Example 73, 5-[4-[[(2R)-1-ethylazetidin-2-yl]methoxy]-2-methyl-pyrazol-3-yl]-N-[6-methyl-2-(trifluoromethyl)pyrimidin-4-yl]pyrazolo[1,5-a]pyridin-2-amine]
144	Cc1onc(O[C@@H]2CCNC2)c1-c1ccn2nc(NC(=O)C3CC3)cc2c1 [Example 74, N-[5-[5-methyl-3-[(3R)-pyrrolidin-3-yl]oxy-isoxazol-4-yl]pyrazolo[1,5-a]pyridin-2-yl]cyclopropanecarboxamide]
35	Cc1onc(O[C@H]2CCNC2)c1-c1ccn2nc(NC(=O)C3CC3)cc2c1 [Example 75, N-[5-[5-methyl-3-[(3S)-pyrrolidin-3-yl]oxy-isoxazol-4-yl]pyrazolo[1,5-a]pyridin-2-yl]cyclopropanecarboxamide]
12.2	COC1(COc2noc(C)c2-c2ccn3nc(NC(=O)C4CC4)cc3c2)CNC1 [Example 76, N-[5-[3-[(3-methoxyazetidin-3-yl)methoxy]-5-methyl-isoxazol-4-yl]pyrazolo[1,5-a]pyridin-2-yl]cyclopropanecarboxamide]
12.9	Cc1onc(OCC2(C#N)CNC2)c1-c1ccn2nc(NC(=O)C3CC3)cc2c1 [Example 77, N-[5-[3-[(3-cyanoazetidin-3-yl)methoxy]-5-methyl-isoxazol-4-yl]pyrazolo[1,5-a]pyridin-2-yl]cyclopropanecarboxamide]

More lines, now with the values behind:

Structure (SMILES)	IC50 [nM]
CN1CC[C@@H]1COc1cnn(C)c1-c1ccn2nc(Nc3ccc(C(=O)NCC(C)(C)C#N)cn3)cc2c1 [Example 36, N-(2-cyano-2-methyl-propyl)-6-[[5-[2-methyl-4-[[(2R)-1-methylazetidin-2-yl]methoxy]pyrazol-3-yl]pyrazolo[1,5-a]pyridin-2-yl]amino]pyridine-3-carboxamide]	10.3
COc1cc(Nc2cc3cc(-c4c(OC[C@H]5CCN5C)cnn4C)ccn3n2)cc(OC)c1C(=O)NC(C)C [Example 37, N-isopropyl-2,6-dimethoxy-4-[[5-[2-methyl-4-[[(2R)-1-methylazetidin-2-yl]methoxy]pyrazol-3-yl]pyrazolo[1,5-a]pyridin-2-yl]amino]benzamide]	42.9
Cc1ccc(Nc2cc3cc(-c4c(OC[C@H]5CCN5C)cnn4C)ccn3n2)nn1 [Example 39, 5-[2-methyl-4-[[(2R)-1-methylazetidin-2-yl]methoxy]pyrazol-3-yl]-N-(6-methylpyridazin-3-yl)pyrazolo[1,5-a]pyridin-2-amine]	3.4
Cc1cc(Nc2cc3cc(-c4c(OC[C@H]5CCN5)cnn4C)ccn3n2)nc(C)n1 [Example 42, 5-[4-[[(2R)-azetidin-2-yl]methoxy]-2-methyl-pyrazol-3-yl]-N-(2,6-dimethylpyrimidin-4-yl)pyrazolo[1,5-a]pyridin-2-amine]	14.6
Cn1ncc(O[C@@H]2C[C@H]3COC[C@@H](C2)N3)c1-c1ccn2nc(NC(=O)C3CC3)cc2c1 [Example 43, exo-N-[5-[2-methyl-4-[[(1R,5S)-3-oxa-9-azabicyclo[3.3.1]nonan-7-yl]oxy]pyrazol-3-yl]pyrazolo[1,5-a]pyridin-2-yl]cyclopropanecarboxamide]	17.3
Cn1ncc(OCC2(c3ccccc3)CNC2)c1-c1ccn2nc(NC(=O)C3CC3)cc2c1 [Example 44, N-[5-[2-methyl-4-[(3-phenylazetidin-3-yl)methoxy]pyrazol-3-yl]pyrazolo[1,5-a]pyridin-2-yl]cyclopropanecarboxamide]	17.6
Cc1cncc(Nc2cc3cc(-c4c(OC[C@H]5CCN5)cnn4C)ccn3n2)n1 [Example 45, 5-[4-[[(2R)-azetidin-2-yl]methoxy]-2-methyl-pyrazol-3-yl]-N-(6-methylpyrazin-2-yl)pyrazolo[1,5-a]pyridin-2-amine]	24.1
Cc1cncc(Nc2cc3cc(-c4c(OC[C@H]5CCN5C)cnn4C)ccn3n2)n1 [Example 46, 5-[2-methyl-4-[[(2R)-1-methylazetidin-2-yl]methoxy]pyrazol-3-yl]-N-(6-methylpyrazin-2-yl)pyrazolo[1,5-a]pyridin-2-amine]	2.5
CCN1CC[C@H]1COc1cnn(C)c1-c1ccn2nc(NC(=O)C3CC3)cc2c1 [Example 47, N-[5-[4-[[(2S)-1-ethylazetidin-2-yl]methoxy]-2-methyl-pyrazol-3-yl]pyrazolo[1,5-a]pyridin-2-yl]cyclopropanecarboxamide]	87.7
CC(C)N1CC[C@H]1COc1cnn(C)c1-c1ccn2nc(NC(=O)C3CC3)cc2c1 [Example 48, N-[5-[4-[[(2S)-1-isopropylazetidin-2-yl]methoxy]-2-methyl-pyrazol-3-yl]pyrazolo[1,5-a]pyridin-2-yl]cyclopropanecarboxamide]	269
Cc1cnc(Nc2cc3cc(-c4c(OC[C@H]5CCN5C)cnn4C)ccn3n2)cn1 [Example 49, 5-[2-methyl-4-[[(2R)-1-methylazetidin-2-yl]methoxy]pyrazol-3-yl]-N-(5-methylpyrazin-2-yl)pyrazolo[1,5-a]pyridin-2-amine]	5.3
CN1CC[C@@H]1COc1cnn(C)c1-c1ccn2nc(Nc3ccc(C4CC4)nn3)cc2c1 [Example 50, N-(6-cyclopropylpyridazin-3-yl)-5-[2-methyl-4-[[(2R)-1-methylazetidin-2-yl]methoxy]pyrazol-3-yl]pyrazolo[1,5-a]pyridin-2-amine]	2.6
CCN1CC[C@@H]1COc1cnn(C)c1-c1ccn2nc(NC(=O)C3CC3)cc2c1 [Example 52, N-[5-[4-[[(2R)-1-ethylazetidin-2-yl]methoxy]-2-methyl-pyrazol-3-yl]pyrazolo[1,5-a]pyridin-2-yl]cyclopropanecarboxamide]	3.6
CC(C)N1CC[C@@H]1COc1cnn(C)c1-c1ccn2nc(NC(=O)C3CC3)cc2c1 [Example 53, N-[5-[4-[[(2R)-1-isopropylazetidin-2-yl]methoxy]-2-methyl-pyrazol-3-yl]pyrazolo[1,5-a]pyridin-2-yl]cyclopropanecarboxamide]	68.3
Cc1cc(Nc2cc3cc(-c4c(OC[C@H]5CCN5C)cnn4C)ccn3n2)ncn1 [Example 55, 5-[2-methyl-4-[[(2R)-1-methylazetidin-2-yl]methoxy]pyrazol-3-yl]-N-(6-methylpyrimidin-4-yl)pyrazolo[1,5-a]pyridin-2-amine]	1.3
CC(=O)N1CC[C@@H]1COc1cnn(C)c1-c1ccn2nc(NC(=O)C3CC3)cc2c1 [Example 56, N-[5-[4-[[(2R)-1-acetylazetidin-2-yl]methoxy]-2-methyl-pyrazol-3-yl]pyrazolo[1,5-a]pyridin-2-yl]cyclopropanecarboxamide]	2500
Cc1nc(C)c(C)c(Nc2cc3cc(-c4c(OC[C@H]5CCN5C)cnn4C)ccn3n2)n1 [Example 57, 5-[2-methyl-4-[[(2R)-1-methylazetidin-2-yl]methoxy]pyrazol-3-yl]-N-(2,5,6-trimethylpyrimidin-4-yl)pyrazolo[1,5-a]pyridin-2-amine]	471
Cc1cc(C)c(Nc2cc3cc(-c4c(OC[C@H]5CCN5C)cnn4C)ccn3n2)nn1 [Example 61, N-(4,6-dimethylpyridazin-3-yl)-5-[2-methyl-4-[[(2R)-1-methylazetidin-2-yl]methoxy]pyrazol-3-yl]pyrazolo[1,5-a]pyridin-2-amine]	1140
CCN1CC[C@@H]1COc1cnn(C)c1-c1ccn2nc(Nc3cc(C)nc(C)n3)cc2c1 [Example 62, N-(2,6-dimethylpyrimidin-4-yl)-5-[4-[[(2R)-1-ethylazetidin-2-yl]methoxy]-2-methyl-pyrazol-3-yl]pyrazolo[1,5-a]pyridin-2-amine]	0.9
Cc1cc(Nc2cc3cc(-c4c(OC[C@H]5CCN5C)cnn4C)ccn3n2)nc(C(F)(F)F)n1 [Example 63, 5-[2-methyl-4-[[(2R)-1-methylazetidin-2-yl]methoxy]pyrazol-3-yl]-N-[6-methyl-2-(trifluoromethyl)pyrimidin-4-yl]pyrazolo[1,5-a]pyridin-2-amine]	1.1
